Assays:
SKM-1 (no MLL fusion) = experiment: 7-day proliferation assay (WST-8), SKM-1; type: cell-based; conditions: Homo sapiens, 168 h, Table 6, 7 days, read-out: IC50 in cell growth inhibition
Method: (§1) The effect of representative Compounds of the Disclosure on cell viability was determined in a 7-day proliferation assay. Cells were maintained in the appropriate culture medium with 10% FBS at 37° C. and an atmosphere of 5% CO2.
(§2) Cells were seeded in 96-well flat bottom (Corning COSTAR, Corning, N.Y., cat #3595) at a density of 2,000-3,000 cells/well in 100 μl of culture medium. Compounds were serially diluted in the appropriate medium, and 100 μl of the diluted compounds were added to the appropriate wells of the cell plate. After the addition of compounds, the cells were incubated at 37° C. in an atmosphere of 5% CO2 for 7 days. Cell viability was determined using the WST (2-(2-methoxy-4-nitrophenyl)-3-(4-nitrophenyl)-5-(2,4-disulfophenyl)-2H-tetrazolium, monosodium salt) Cell Counting-8 Kit (Dojindo Molecular Technologies, Inc., Rockville, Md.) according to the manufacturers' instructions.
(§3) WST-8 reagent was added to each well at a final concentration of 10% (v/v), and then the plates were incubated at 37° C. for 1-2 hours for color development. The absorbance was measured at 450 nm using a SPECTRAmax PLUS plate reader (Molecular Devices, Sunnyvale, Calif.). […]

MOLM-4 (MLL-AF9) = experiment: 7-day proliferation assay (WST-8), MOLM-4; type: cell-based; conditions: 168 h, Table 6, 7 days, read-out: IC50 in cell growth inhibition
Method: as §1, §2, §3

MonoMac6 = experiment: 7-day proliferation assay (WST-8), MonoMac6; type: cell-based; conditions: Homo sapiens, MONO-MAC-6, 168 h; Table 6; MonoMac6 (MLL-AF9); 7 days; read-out: IC50 in cell growth inhibition
Method: as §1, §2
(§4) WST-8 reagent was added to each well at a final concentration of 10% (v/v), and then the plates were incubated at 37° C. for 1-2 hours for color development. The absorbance was measured at 450 nm using a SPECTRAmax PLUS plate reader (Molecular Devices, Sunnyvale, Calif.). The readings were normalized to the DMSO-treated cells and the half maximal inhibitory concentration (IC50) was calculated by nonlinear regression (four parameters sigmoid fitted with variable slope, least squares fit, and no constraint) analysis using the GraphPad Prism 5 software (GraphPad Software, La Jolla, Calif.).

[1] = test system: MEIS1 and HOXA gene expression in MV4;11 cell lines; experiment: MEIS1 and HOXA gene expression by RT-PCR in MV4;11; type: cell-based; conditions: for MEIS1 and HOXA gene expression (mRNA levels of MEIS1, HOXA9 and HOXA11): different concentrations
Method: FIG. 4 is a bar graph showing that Cpd. No. 57 suppresses MEIS1 and HOXA gene expression in MV4;11 cell lines. Cells were treated with different concentrations of Cpd. No. 57 for 24 h. mRNA levels of MEIS1, HOXA9 and HOXA11 were determined by RT-PCR. *(p<0.05), **(p<0.01).
FIG. 5 is a bar graph showing that Cpd. No. 57 suppresses MEIS1 and HOXA gene expression in MV4;11 cell lines. Cells were treated with different concentrations of Cpd. No. 57 for 6 h. mRNA levels of MEIS1, HOXA9 and HOXA11 were determined by RT-PCR. *(p<0.05), **(p<0.01).
(§5) No. 57 suppresses MEIS1 and HOXA gene expression in MV4;11 and MOLM13 cell lines.

[2] = test system: MEIS1 and HOXA gene expression in MOLM13 cell lines; experiment: MEIS1 and HOXA gene expression by RT-PCR in MOLM13; type: cell-based
Method: FIG. 6 is a bar graph showing that Cpd. No. 57 suppresses MEIS1 and HOXA gene expression in MOLM13 cell lines. Cells were treated with different concentrations of Cpd. No. 57 for 24 h. mRNA levels of MEIS1, HOXA9 and HOXA11 were determined by RT-PCR. *(p<0.05), **(p<0.01).
as §5

MOLM13 = experiment: 7-day proliferation assay (WST-8), MOLM13; type: cell-based; conditions: Homo sapiens, MOLM-13, 168 h; Table 5; MOLM13; 7 days; read-out: IC50 in cell growth inhibition
Method: as §1, §2, §4

MOLM-16 (no MLL fusion) = experiment: 7-day proliferation assay (WST-8), MOLM-16; type: cell-based; conditions: MOLM16, 168 h, Table 6, 7 days, read-out: IC50 in cell growth inhibition
Method: as §1, §2, §3

RS4-11 = experiment: 7-day proliferation assay (WST-8), RS4-11; type: cell-based; conditions: Homo sapiens, RS4-11, 168 h; Table 6; 7 days; read-out: IC50 in cell growth inhibition
Method: as §1, §2, §4

MV4-11 = experiment: 7-day proliferation assay (WST-8), MV4-11; type: cell-based; conditions: Homo sapiens, 168 h; Table 5; MV4-11; 7 days; read-out: IC50 in cell growth inhibition
Method: as §1, §2, §4

HL-60 (no MLL fusion) = experiment: 7-day proliferation assay (WST-8), HL-60; type: cell-based; conditions: Homo sapiens, 168 h, Table 6, 7 days, read-out: IC50 in cell growth inhibition
Method: as §1, §2, §3

K562 (no MLL fusion) = experiment: 7-day proliferation assay (WST-8), K562; type: cell-based; conditions: Homo sapiens, 168 h, Table 6, 7 days, read-out: IC50 in cell growth inhibition
Method: as §1, §2, §3

menin protein = menin protein (Homo sapiens (Human), UniProt O00255); experiment: Fluorescence polarization (FP) competitive binding assay, menin binding affinity; conditions: menin protein 4 nM, probe 2 nM, room temperature 30 minutes
menin protein, sequence (O00255 whole entry): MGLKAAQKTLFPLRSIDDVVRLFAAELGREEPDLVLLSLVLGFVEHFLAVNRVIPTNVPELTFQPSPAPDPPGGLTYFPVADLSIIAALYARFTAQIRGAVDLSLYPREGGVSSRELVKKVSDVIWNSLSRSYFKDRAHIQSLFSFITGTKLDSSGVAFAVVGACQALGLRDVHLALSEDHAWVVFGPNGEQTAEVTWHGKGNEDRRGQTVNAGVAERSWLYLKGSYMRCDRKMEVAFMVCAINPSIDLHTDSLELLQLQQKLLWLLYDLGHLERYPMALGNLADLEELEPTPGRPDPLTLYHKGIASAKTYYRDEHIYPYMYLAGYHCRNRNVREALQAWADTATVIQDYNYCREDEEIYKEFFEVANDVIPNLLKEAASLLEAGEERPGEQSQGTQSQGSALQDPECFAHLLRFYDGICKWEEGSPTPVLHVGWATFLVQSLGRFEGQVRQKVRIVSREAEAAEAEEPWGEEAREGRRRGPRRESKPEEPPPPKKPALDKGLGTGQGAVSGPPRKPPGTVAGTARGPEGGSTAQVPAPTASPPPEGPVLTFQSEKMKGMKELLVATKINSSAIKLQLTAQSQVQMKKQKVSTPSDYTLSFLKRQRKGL
How it was run: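 FAM-MM2, a FAM-labelled MLL1-peptide probe (2 nM), was preincubated with menin (4 nM) in PBS with 0.02% bovine γ-globulin, 4% DMSO and 0.01% Triton X-100. Compounds were added for 30 min at room temperature with shaking. FP (mP) was read at ex 485/em 530, and IC50 came from nonlinear regression of the competition curves.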

SEM cells = experiment: 7-day proliferation assay (WST-8), SEM; type: cell-based; conditions: 168 h; Table 6; SEM (MLL-AF4); 7 days; read-out: IC50 in cell growth inhibition
Method: as §1, §2, §4

IC50 (SKM-1 (no MLL fusion)): 900 nM | IC50 (MOLM-4 (MLL-AF9)): 31.3 nM | IC50 (MOLM13): 15.4 nM | IC50 (MOLM-16 (no MLL fusion)): 6500 nM | IC50 (RS4-11): 9.4 nM | IC50 (MV4-11): 2.3 nM | IC50 (HL-60 (no MLL fusion)): 1600 nM | IC50 (K562 (no MLL fusion)): 4500 nM | IC50 (menin protein): 3 nM
SMILES: COC(=O)N[C@H]1CCC[C@@H]1[C@](C#N)(c1cccc(F)c1)C1CCN(CC2CN(c3ccc(S(=O)(=O)C4CN(C(=O)/C=C/CN(C)C)C4)cc3)C2)CC1 [Cpd. No. 57, methyl ((1S,2R)-2-((S)-cyano(1-((1-(4-((1-((E)-4-(dimethylamino)but-2-enoyl)azetidin-3-yl)sulfonyl)phenyl)azetidin-3-yl)methyl)piperidin-4-yl)(3-fluorophenyl)methyl)cyclopentyl)carbamate]
IC50 (MonoMac6): 10.3 nM | MEIS1 and HOXA gene expression (mRNA levels of MEIS1, HOXA9 and HOXA11) ([1]; MV4;11, 6 h, RT-PCR (FIG. 5)): suppresses | MEIS1 and HOXA gene expression (mRNA levels of MEIS1, HOXA9 and HOXA11) ([1]; MV4;11, 24 h, RT-PCR (FIG. 4)): suppresses | MEIS1 and HOXA gene expression ([1]; MV4;11, summary sentence for FIG. 4, FIG. 5): suppresses | MEIS1 and HOXA gene expression (mRNA levels of MEIS1, HOXA9 and HOXA11) ([2]; MOLM13, 24 h, different concentrations, RT-PCR (FIG. 6)): suppresses | MEIS1 and HOXA gene expression ([2]; MOLM13, summary sentence for FIG. 6): suppresses | IC50 (SEM cells): 18 nM

From US11045448B2, “Piperidines as covalent menin inhibitors” (THE REGENTS OF THE UNIVERSITY OF MICHIGAN, priority 2017, dated 2021)
